In PMC9667546, “Selective Inhibition of Bruton’s Tyrosine Kinase by a Designed Covalent Ligand Leads to Potent Therapeutic Efficacy in Blood Cancers Relative to Clinically Used Inhibitors” (ACS Pharmacology & Translational Science, 2022):
Like-named read-outs stand apart in the source and are kept apart here.

Experiments:
BTK [1] = target: T1, BTK (Homo sapiens, UniProt Q06187); assay: BTK inhibition kinetics (ADP-Glo kinase assay); type: biochemical; parameters: purchased Promega Corporation V2941
T1 sequence (Q06187 whole entry): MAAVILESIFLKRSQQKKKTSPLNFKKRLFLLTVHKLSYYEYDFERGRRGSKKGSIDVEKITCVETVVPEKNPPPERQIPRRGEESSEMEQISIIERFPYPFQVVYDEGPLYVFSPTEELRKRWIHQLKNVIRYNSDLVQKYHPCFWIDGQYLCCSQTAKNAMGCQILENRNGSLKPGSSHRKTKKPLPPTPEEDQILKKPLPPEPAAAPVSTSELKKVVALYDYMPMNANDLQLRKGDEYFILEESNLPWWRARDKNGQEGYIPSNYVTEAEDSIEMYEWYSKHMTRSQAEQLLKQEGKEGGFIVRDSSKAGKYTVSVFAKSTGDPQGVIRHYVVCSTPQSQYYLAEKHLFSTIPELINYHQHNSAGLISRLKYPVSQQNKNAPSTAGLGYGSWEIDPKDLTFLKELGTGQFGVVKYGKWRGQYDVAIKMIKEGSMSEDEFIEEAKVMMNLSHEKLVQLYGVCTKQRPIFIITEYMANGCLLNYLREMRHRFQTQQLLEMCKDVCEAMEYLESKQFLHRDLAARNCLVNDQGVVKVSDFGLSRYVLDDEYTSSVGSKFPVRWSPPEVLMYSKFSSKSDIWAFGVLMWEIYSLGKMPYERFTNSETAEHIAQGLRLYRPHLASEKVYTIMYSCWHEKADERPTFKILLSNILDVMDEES

Raji cells (BL) = assay: Cell viability assay (CellTiter-Glo), Raji; type: cell-based; settings: Homo sapiens, 72 h, n = 3
Description: All cell lines were purchased from ATCC, except for DoHH-2 cells that were obtained from DSMZ. Cells were cultivated in complete DMEM supplemented with 10% (vol/vol) FBS (Gibco) and 1% of penicillin/streptomycin (Gibco). The cells were grown in a humidified atmosphere of 5% CO2 at 37°C, with the medium changed every other day.
Cells were inoculated at a density of 5000 cells/well. Serially diluted compounds (starting at 50 μM) were added 24 h later. The assay was performed in triplicates. After 72 h of incubation, cellular viability was assessed by CellTiter-Glo (Promega) according to the manufacturer’s instructions. The values were normalized with the vehicle (DMSO), and the IC50 was calculated using GraphPad Prism 8.

JAK3 = target: T2, JAK3 (Homo sapiens, UniProt P52333); assay: NanoBRET in-cell target engagement, JAK3; type: binding; settings: HEK296T cells, 1 h incubation, average of duplicates
T2 construct: host or cells: HEK296T (so in the source)
T2 sequence (P52333 whole entry): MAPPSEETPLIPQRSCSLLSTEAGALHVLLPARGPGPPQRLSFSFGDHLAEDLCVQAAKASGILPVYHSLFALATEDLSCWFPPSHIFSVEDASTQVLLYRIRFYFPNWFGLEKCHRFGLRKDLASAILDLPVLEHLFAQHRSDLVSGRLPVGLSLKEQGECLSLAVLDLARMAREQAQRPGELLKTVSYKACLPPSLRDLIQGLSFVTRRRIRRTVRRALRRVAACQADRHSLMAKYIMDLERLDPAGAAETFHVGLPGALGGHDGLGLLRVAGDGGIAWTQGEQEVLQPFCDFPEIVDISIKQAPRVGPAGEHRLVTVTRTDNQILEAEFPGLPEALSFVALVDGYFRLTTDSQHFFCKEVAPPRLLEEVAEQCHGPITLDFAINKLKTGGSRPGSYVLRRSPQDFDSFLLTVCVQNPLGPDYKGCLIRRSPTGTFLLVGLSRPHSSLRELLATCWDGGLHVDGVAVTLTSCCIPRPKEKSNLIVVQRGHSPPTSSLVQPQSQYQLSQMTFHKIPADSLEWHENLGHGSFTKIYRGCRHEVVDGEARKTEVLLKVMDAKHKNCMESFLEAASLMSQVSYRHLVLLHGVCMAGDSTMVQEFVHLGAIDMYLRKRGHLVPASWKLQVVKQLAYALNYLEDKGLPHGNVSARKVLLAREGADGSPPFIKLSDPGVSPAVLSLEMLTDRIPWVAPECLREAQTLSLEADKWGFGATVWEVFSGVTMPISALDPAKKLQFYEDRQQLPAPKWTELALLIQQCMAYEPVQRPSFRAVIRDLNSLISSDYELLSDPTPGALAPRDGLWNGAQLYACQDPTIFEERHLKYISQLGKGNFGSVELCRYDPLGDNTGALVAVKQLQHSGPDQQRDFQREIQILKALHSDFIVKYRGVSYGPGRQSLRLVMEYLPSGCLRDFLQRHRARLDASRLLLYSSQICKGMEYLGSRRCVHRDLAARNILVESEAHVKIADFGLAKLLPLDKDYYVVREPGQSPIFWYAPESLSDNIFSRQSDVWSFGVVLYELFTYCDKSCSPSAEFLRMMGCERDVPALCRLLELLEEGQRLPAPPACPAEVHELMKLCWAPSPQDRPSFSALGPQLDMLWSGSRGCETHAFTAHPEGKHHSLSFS
Description: (§1) In-cell target engagement was performed at Reaction Biology Corporation, using NanoBRET technology. Very briefly, HEK296T cells were transfected and treated in duplicate with JS25 for 1 h of incubation. The compound was diluted 10 times with 3-fold dilution, starting at 1 μM. Curve fits were performed only when the % NanoBret signal at the highest concentration of compounds was less than 55%. The IC50 values were determined using GraphPad Prism 8 ([…]).

[2] = Body weight in the mice xenograft model; type: in vivo; settings: up to 20 mg/kg i.p. every 2 days
Description: Female adult BALB/c/NSG mice were injected subcutaneously with 1 × 10^6 Raji cells, in a 1:1 solution of Matrigel Matrix (Corning) to create solid tumors. When tumors reached 180 mm^3 on average, mice were randomized into four groups (n = 6/group), and dosing began every 2 days. […] Tumor size and body weight were monitored periodically for 12 days. At the end of the experiment, mice necropsies were performed. Stereological analysis was conducted by the Histopathology Unit at Instituto Gulbenkian de Ciência and by the Comparative Pathology Unit at Instituto de Medicina Molecular João Lobo Antunes. Quantification of metastases and cell necrosis was performed in all groups (n = 5/group). Statistical analysis was conducted using one-way ANOVA. The Dunnet test was used to analyze the statistical significance between the treatment groups and the control.

TXK = target: T3, TXK (Homo sapiens, UniProt P42681); assay: NanoBRET in-cell target engagement, TXK; type: binding
T3 construct: host or cells: HEK296T (so in the source)
T3 sequence (P42681 1-527): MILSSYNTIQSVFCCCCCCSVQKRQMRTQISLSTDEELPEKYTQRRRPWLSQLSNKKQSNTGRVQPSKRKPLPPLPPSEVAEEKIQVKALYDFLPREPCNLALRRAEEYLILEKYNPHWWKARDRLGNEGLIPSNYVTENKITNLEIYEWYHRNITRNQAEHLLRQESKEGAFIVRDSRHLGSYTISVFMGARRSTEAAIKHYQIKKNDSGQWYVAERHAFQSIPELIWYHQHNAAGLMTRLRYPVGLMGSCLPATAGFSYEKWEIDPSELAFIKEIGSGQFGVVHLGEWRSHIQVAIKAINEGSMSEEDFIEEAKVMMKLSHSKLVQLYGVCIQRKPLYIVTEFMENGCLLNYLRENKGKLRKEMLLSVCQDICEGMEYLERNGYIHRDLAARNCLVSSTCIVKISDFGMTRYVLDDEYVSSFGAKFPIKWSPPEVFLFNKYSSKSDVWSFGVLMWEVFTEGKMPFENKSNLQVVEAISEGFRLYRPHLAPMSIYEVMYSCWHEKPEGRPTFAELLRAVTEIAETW
Description: as §1

BMX = target: T4, BMX (Homo sapiens, UniProt P51813); assay: NanoBRET in-cell target engagement, BMX; type: binding
T4 construct: host or cells: HEK296T (so in the source)
T4 sequence (P51813 1-675): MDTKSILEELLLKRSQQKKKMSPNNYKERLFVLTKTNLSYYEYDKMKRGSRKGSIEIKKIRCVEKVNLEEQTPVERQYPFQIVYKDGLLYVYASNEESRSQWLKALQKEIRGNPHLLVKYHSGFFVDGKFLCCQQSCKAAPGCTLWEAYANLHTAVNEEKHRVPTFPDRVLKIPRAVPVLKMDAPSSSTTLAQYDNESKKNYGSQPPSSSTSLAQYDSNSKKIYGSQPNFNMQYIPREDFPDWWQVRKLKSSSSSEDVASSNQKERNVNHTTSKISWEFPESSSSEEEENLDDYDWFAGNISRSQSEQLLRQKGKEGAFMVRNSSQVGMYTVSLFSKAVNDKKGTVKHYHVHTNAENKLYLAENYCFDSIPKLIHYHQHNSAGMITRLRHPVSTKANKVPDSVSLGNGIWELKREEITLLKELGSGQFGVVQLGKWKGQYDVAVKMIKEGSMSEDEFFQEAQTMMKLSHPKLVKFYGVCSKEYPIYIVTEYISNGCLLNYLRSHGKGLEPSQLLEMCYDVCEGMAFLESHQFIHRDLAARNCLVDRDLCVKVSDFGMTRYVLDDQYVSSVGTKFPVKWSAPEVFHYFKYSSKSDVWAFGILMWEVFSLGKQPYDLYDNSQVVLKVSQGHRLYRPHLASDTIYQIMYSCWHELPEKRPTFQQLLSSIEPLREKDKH
Description: as §1

BTK [3] = target: T1, BTK; assay: NanoBRET in-cell target engagement, BTK; type: binding; parameters: purchased Promega Corporation V2941
Description: as §1

[4] = BTK preincubated with inhibitor 2–60 min, ATP 50 μM
[5] = HEK296T cells, 1 h incubation, average of duplicates

In the case of `C=CC(=O)Nc1cc(C)cc(-n2c(=O)ccc3cnc4ccc(-c5ccc(NS(C)(=O)=O)cc5)cc4c32)c1` [JS25], the “increase in the rate of protein inactivation compared to ibrutinib, acalabrutinib and BMX-IN-1” value (BTK [1]) is reported as 8–200 fold, the “increased rate of inactivation (kinact/KI) relative to BMX-IN-1” value (BTK [1]) is reported as about 18 fold and the “increased rate of inactivation (kinact/KI) relative to acalabrutinib” value (BTK [1]) is reported as about 200 fold. The “increased rate of inactivation (kinact/KI) relative to ibrutinib” value (BTK [1]) was “approximately 8 fold”, the “kinact of JS25, fold faster compared with ibrutinib, acalabrutinib and BMX-IN-1” value (BTK [1]) was 10 fold and the Ki (BTK [1]; [4]) was 0.77 ± 0.06 nM. It also gave a kinact (BTK [1]; [4]) of 0.00668 s⁻¹, a kinact/KI (BTK [1]; [4]) of 8.72e+06 ± 1.02e+06 M⁻¹ s⁻¹ and an IC50 (Raji cells (BL)) of 2300 nM. The IC50 (JAK3) was over 3000 nM, the “body weight fluctuation by the end of the treatment” value [2] was “no weight fluctuations were observed” and the “selectivity for BTK relative to TXK” value (TXK) was about 7 fold. For the same compound, the IC50 (TXK; [5]) was 190 nM, the “selectivity (kinase/BTK), TXK” value (TXK; IC50 kinase/IC50 BTK) was 6.7 and the “selectivity toward BTK relative to BMX” value (BMX) was about 2 fold. The IC50 (BMX; [5]) was 49 nM, the “selectivity (kinase/BTK), BMX” value (BMX; IC50 kinase/IC50 BTK) was 1.7 and the IC50 (BTK [3]; HEK296T cells, 1 h incubation, average of duplicates, read-out: IC50 (M), BTK) was 2.85e-08 M. The “selectivity (kinase/BTK), BTK” value (BTK [3]; IC50 kinase/IC50 BTK) was 1 and the IC50 (BTK [3]; NanoBRET value as given in text and Table S3, read-out: IC50, BTK) was 2.8e-08 M.
